Measured values from patent publication US4808703A, “Novel 3-(4'-aminobutylamino) propylaminobleomycin derivatives” (Zaidan Hojin Biseibutsu Kagaku Kenku Kai, priority 1983, dated 1989).
Read-outs that look alike come from different tables or passages of the source.

Experiments:
[1] = system: Mycobacterium smegmatis ATCC 607; experiment: Antibacterial activity by the agar cylinder plate method, Mycobacterium smegmatis ATCC607; format: cell-based; details: copper-containing compound, standard bleomycin A2 = 1,000 mcg potency/mg
Description: (§1) (1) Antibacterial activity against Mycobacterium smegmatis ATCC607 and Bacillus subtilis
(§2) The above activity ws determined by the agar cylinder plate method using the above microorganisms.

HeLa S3 cells = experiment: Growth-inhibiting effect on HeLa S3 cell cultured; format: cell-based; details: 3 days of incubation after addition
Description: (2) Growth-inhibiting effect on HeLa S3 cell cultured
A culture medium (10% calf serum-containing MEM) in a plastic dish was inoculated with HeLa S3 cells, and a bleomycin compound was added 2 days later. Incubation was continued for a further 3 days, and then the number of viable cells was counted. Growth inhibitory rate was calculated from the following equation:
Growth inhibitory rate (%)=100×(B-A)/(B-C)
where A is the final bacterial cell count 3 days after addition of the test sample, B is the final bacterial cell count in the control involving no addition of the test sample, and C is the bacterial cell count at the time of addition of the test sample.
ID50, the concentration producing a growth inhibitory rate of 50%, was estimated from the curve of the concentration of the test sample Vs. the growth inhibitory rate.

Bacillus subtilis = experiment: Antibacterial activity by the agar cylinder plate method, Bacillus subtilis; format: cell-based; details: copper-containing compound, standard bleomycin A2 = 1,000 mcg potency/mg
Description: as §1, §2

ICR mice [2] = details: mouse, in vivo
Description: (§3) ICR mice (male, 15-week-old) were used in groups of 10 each. The dose of each test compound was 5 mg/kg injected intraperitoneally once daily for 10 consecutive days. After the administration of the compound was completed, the animals were reared for 5 weeks for observation. Then, the animals were killed and autopsied so that the incidence and grade of pulmonary fibrosis were examined.
(§4) The incidence of pulmonary fibrosis was expressed as the number of mice developing pulmonary fibrosis in the group of mice administered the test compound. The grade of pulmonary fibrosis was expressed as the total score for pulmonary fibrosis divided by the total number of specimens.
(§5) 1 point: Accumulation of exudate in the alveoli, and fibrosis-like changes seen in the alveolar septum.
(§6) 2 points: Fibrosis seen at several sites.
4 points: Sporadic fibrosis.
(§7) 6 points: Extensive fibrosis (fibrosis seen in more than 170 of the total region).
(§8) The ratio in the table represents the ratio of the incidence of the test compound to that of bleomycin complex, or the ratio of the grade of the test compound to that of bleomycin complex.

ICR mice [3] = experiment: Pulmonary toxicity (fibrosis of the lung) in mice; details: for Incidence: Number of mice with pulmonary fibrosis/Number of mice in the treatment group / Incidence (%) of pulmonary fibrosis / Grade: Total score for pulmonary fibrosis/Total specimens / Grade of pulmonary fibrosis (total score divided by total number of specimens): 5 mg/kg i.p. once daily for 10 days; for Incidence: Number of mice with pulmonary fibrosis/Number of mice in the treatment group / Incidence (%) of pulmonary fibrosis: autopsy after 5 weeks of observation; for Incidence: Number of mice with pulmonary fibrosis/Number of mice in the treatment group: count; for Incidence (%) of pulmonary fibrosis: percentage in parentheses; for Grade: Total score for pulmonary fibrosis/Total specimens / Grade of pulmonary fibrosis (total score divided by total number of specimens): autopsy after 5 weeks, scores 0, 1, 2, 4, 6 points; for Grade: Total score for pulmonary fibrosis/Total specimens: fraction; for Grade of pulmonary fibrosis (total score divided by total number of specimens): value in parentheses; for Grade ratio: grade of the test compound to that of bleomycin complex; for Incidence ratio: incidence of the test compound to that of bleomycin complex
Description: as §3, §4, §5, §6
4 points: Sporadic fibrosis.
as §7, §8

[4] = system: Mycobacterium smegmatis ATCC 607; details: copper-free bleomycin A2; standard for both Mycobacterium smegmatis ATCC607 and Bacillus subtilis; cited from earlier work

Compound	Antibacterial titer of copper-compound [1] [mcg potency/mg]	ID50 of copper-free compound (concentration producing a growth inhibitory rate of 50%) (HeLa S3 cells) [µg/mL]	Antibacterial titer of copper-compound (Bacillus subtilis) [mcg potency/mg]	Grade ratio (ICR mice [2])	Incidence ratio (ICR mice [2])	Incidence: Number of mice with pulmonary fibrosis/Number of mice in the treatment group (ICR mice [2])	Incidence: Number of mice with pulmonary fibrosis/Number of mice in the treatment group (ICR mice [3])	Incidence (%) of pulmonary fibrosis (ICR mice [3]) [%]	Grade: Total score for pulmonary fibrosis/Total specimens (ICR mice [3])	Grade of pulmonary fibrosis (total score divided by total number of specimens) (ICR mice [3])	Grade ratio (ICR mice [3])	Incidence ratio (ICR mice [3])	Titer of the standard substance bleomycin A2 [4]
3-(4'-cycloundecanylmethylaminobutylamino)propylaminobleomycin [Compound 7]	24240	0.16	7330	0.00	0.00	0/10	–	–	–	–	–	–	–
CCCCCN(CCCCC)CCCCN(CCCCC)CCCNC(=O)c1csc(-c2csc(CCNC(=O)C(NC(=O)C(C)C(O)C(C)NC(=O)C(NC(=O)c3nc(C(CC(N)=O)NCC(N)C(N)=O)nc(N)c3C)C(OC3OC(CO)C(O)C(O)C3OC3OC(CO)C(O)C(OC(N)=O)C3O)c3cnc[nH]3)C(C)O)n2)n1 (stereo not shown) [Compound 9, 3-{N--n-pentyl-N--[4'-bis(n-pentyl)aminobutyl]amino}propylaminobleomycin]	57408	–	3520	–	–	–	0/10	0	0/30	0	0.00	0.00	–
Cc1c(N)nc(C(CC(N)=O)NCC(N)C(N)=O)nc1C(=O)NC(C(=O)NC(C)C(O)C(C)C(=O)NC(C(=O)NCCc1nc(-c2nc(C(=O)NCCCN(CCCCN(Cc3ccc(OCc4ccccc4)c(OCc4ccccc4)c3)Cc3ccc(OCc4ccccc4)c(OCc4ccccc4)c3)Cc3ccc(OCc4ccccc4)c(OCc4ccccc4)c3)cs2)cs1)C(C)O)C(OC1OC(CO)C(O)C(O)C1OC1OC(CO)C(O)C(OC(N)=O)C1O)c1cnc[nH]1 (stereo not shown) [Compound 10, 3-{N-m,p-dibenzyloxybenzyl-N-[4'bis(m,p-dibenzyloxybenzyl)aminobutyl]amino}propylaminobleomycin]	136	–	6	–	–	–	0/10	0	0/30	0	0.00	0.00	–
Cc1c(N)nc(C(CC(N)=O)NCC(N)C(N)=O)nc1C(=O)NC(C(=O)NC(C)C(O)C(C)C(=O)NC(C(=O)NCCc1nc(-c2nc(C(=O)NCCC[N+](C)(CCCCN(Cc3ccccc3)Cc3ccccc3)Cc3ccccc3)cs2)cs1)C(C)O)C(OC1OC(CO)C(O)C(O)C1OC1OC(CO)C(O)C(OC(N)=O)C1O)c1cnc[nH]1 (stereo not shown) [Compound 12, 3-[N--methyl-N--benzyl-N--(4'-dibenzyl-aminobutyl)amino]propylaminobleomycin]	13733	–	832	–	–	–	0/10	0	0/30	0	0.00	0.00	–
Cc1c(N)nc(C(CC(N)=O)NCC(N)C(N)=O)nc1C(=O)NC(C(=O)NC(C)C(O)C(C)C(=O)NC(C(=O)NCCc1nc(-c2nc(C(=O)NCCC[S+](C)C)cs2)cs1)C(C)O)C(OC1OC(CO)C(O)C(O)C1OC1OC(CO)C(O)C(OC(N)=O)C1O)c1cnc[nH]1 (stereo not shown) [bleomycin A2]	–	–	–	–	–	–	–	–	–	–	–	–	1,000 mcg potency/mg
